Consider 26 compounds from patent publication US9493446B2, “Orexin receptor antagonists which are [ortho bi-(hetero-)aryl]-[2-(meta bi-(hetero-)aryl)-pyrrolidin-1-yl]-methanone derivatives” (Actelion Pharmaceuticals Ltd, priority 2012, dated 2016).

Test [1] addresses human orexin-2 receptor (Homo sapiens (Human), UniProt O43614). Description: Intracellular calcium measurement (FLIPR), CHO cells expressing human orexin-2 receptor, 3 nM orexin-A. It is filed as cell-based. The note with it: read-out: IC50 OX2. In outline:
(§1)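 HBSS buffer with 0.1% BSA, NaHCO3 and 20 mM HEPES carries both compounds and agonist. Dye: fluo-4 AM (3 μM) with 5 mM probenecid. Compound exposure 120 min; peak signal scored against uninhibited orexin-A response.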
Background: A change in cytosolic calcium serves as a functional read-out for many receptors and channels.

Test [2] has as its target orexin-1 (Homo sapiens (Human), UniProt O43613). As to the kind of experiment: Intracellular calcium measurement (FLIPR), CHO cells expressing human orexin-1 receptor, 3 nM orexin-A. The following applies: CHO cells expressing human orexin-1 receptor, FLIPR, 3 nM orexin-A; geometric mean if determined several times; read-out: IC50 OX1. It is filed as cell-based. In short, it runs like this: as §1

Where [3] appears, read: CHO cells expressing human orexin-2 receptor, FLIPR, 3 nM orexin-A, geometric mean if determined several times.

Like-named read-outs stand apart in the source and are kept apart here.

orexin-1, sequence (O43613 whole entry): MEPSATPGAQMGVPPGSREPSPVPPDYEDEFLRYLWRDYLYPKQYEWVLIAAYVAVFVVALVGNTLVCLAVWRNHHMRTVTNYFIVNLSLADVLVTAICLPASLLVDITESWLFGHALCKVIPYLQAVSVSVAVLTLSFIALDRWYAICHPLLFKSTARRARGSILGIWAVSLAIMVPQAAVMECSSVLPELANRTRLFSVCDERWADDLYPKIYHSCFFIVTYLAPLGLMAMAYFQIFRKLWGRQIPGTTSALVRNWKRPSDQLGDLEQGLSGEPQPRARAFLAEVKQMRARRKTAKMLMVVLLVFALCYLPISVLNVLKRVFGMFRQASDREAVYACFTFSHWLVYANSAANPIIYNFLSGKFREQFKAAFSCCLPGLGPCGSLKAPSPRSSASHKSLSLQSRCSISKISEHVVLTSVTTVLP
human orexin-2 receptor, sequence (O43614 whole entry): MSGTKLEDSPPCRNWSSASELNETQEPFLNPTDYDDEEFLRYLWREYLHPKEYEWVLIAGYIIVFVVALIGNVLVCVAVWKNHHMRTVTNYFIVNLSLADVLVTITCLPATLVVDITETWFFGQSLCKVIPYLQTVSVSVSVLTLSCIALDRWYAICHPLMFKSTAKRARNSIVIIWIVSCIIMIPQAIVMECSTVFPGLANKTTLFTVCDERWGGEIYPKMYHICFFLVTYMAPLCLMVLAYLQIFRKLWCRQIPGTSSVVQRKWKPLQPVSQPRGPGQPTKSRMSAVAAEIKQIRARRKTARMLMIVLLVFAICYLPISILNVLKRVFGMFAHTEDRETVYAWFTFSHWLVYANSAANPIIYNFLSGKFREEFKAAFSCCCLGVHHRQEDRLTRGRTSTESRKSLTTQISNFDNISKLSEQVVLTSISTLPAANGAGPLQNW

Usually IC50 stands for the concentration that gives 50% inhibition. On to `COc1cc(C(=O)N2CCC[C@H]2c2nc(-c3ccccc3C(F)(F)F)no2)c(-n2nccn2)cc1C` [compound 182, (5-Methoxy-4-methyl-2-[1,2,3]triazol-2-yl-phenyl)-{(S)-2-[3-(2-trifluoromethyl-phenyl)-[1,2,4]oxadiazol-5-yl]-pyrrolidin-1-yl}-methanone], for which the figures for the IC50 in test [1] (setting [3]) and in test [2] were 0.029 µM and 0.276 µM, respectively.

For the compound `O=C(c1cccc(F)c1-c1ccn[nH]1)N1CCC[C@H]1c1nc(-c2ccccc2C(F)(F)F)no1` [compound 183, [3-Fluoro-2-(2H-pyrazol-3-yl)-phenyl]-{(S)-2-[3-(2-trifluoromethyl-phenyl)-[1,2,4]oxadiazol-5-yl]-pyrrolidin-1-yl}-methanone], the IC50 in test [1] (setting [3]) was found to be 0.091 µM; in test [2], 0.19 µM.

On to `Cc1ccc(-c2ccccn2)c(C(=O)N2CCC[C@H]2c2nc(-c3ccccc3C(F)(F)F)no2)c1` [compound 184, (5-Methyl-2-pyridin-2-yl-phenyl)-{(S)-2-[3-(2-trifluoromethyl-phenyl)-[1,2,4]oxadiazol-5-yl]-pyrrolidin-1-yl}-methanone], for which the IC50 turned out to be 0.133 µM in test [1] (setting [3]) and 0.311 µM in test [2].

For `O=C(c1ccccc1-n1nccn1)N1CCC[C@H]1c1nc(-c2ccccc2OC(F)F)no1` [compound 185, {(S)-2-[3-(2-Difluoromethoxy-phenyl)-[1,2,4]oxadiazol-5-yl]-pyrrolidin-1-yl}-(2-[1,2,3]triazol-2-yl-phenyl)-methanone], the results for the IC50 in test [1] (setting [3]) and in test [2] were 0.075 µM and 0.523 µM, respectively.

For `O=C(c1cc(Cl)ccc1-n1nccn1)N1CCC[C@H]1c1nc(-c2ccccc2OC(F)F)no1` [compound 186], the IC50 came to 0.017 µM in test [1] (setting [3]) and 0.138 µM in test [2].

For `Cc1ccc(C(=O)N2CCC[C@H]2c2nc(-c3ccccc3OC(F)F)no2)c(-n2nccn2)c1` [compound 187, {(S)-2-[3-(2-Difluoromethoxy-phenyl)-[1,2,4]oxadiazol-5-yl]-pyrrolidin-1-yl}-(4-methyl-2-[1,2,3]triazol-2-yl-phenyl)-methanone], the IC50 was found to be 0.031 µM in test [1] (setting [3]) and 0.079 µM in test [2].

`Cc1cc(C(=O)N2CCC[C@H]2c2nc(-c3ccccc3OC(F)F)no2)c(-n2nccn2)cc1C` [compound 188, {(S)-2-[3-(2-Difluoromethoxy-phenyl)-[1,2,4]oxadiazol-5-yl]-pyrrolidin-1-yl}-(4,5-dimethyl-2-[1,2,3]triazol-2-yl-phenyl)-methanone]: the IC50 is 0.003 µM in test [1] (setting [3]) and 0.02 µM in test [2].

Turning to `COc1cc(C(=O)N2CCC[C@H]2c2nc(-c3ccccc3OC(F)F)no2)c(-n2nccn2)cc1C` [compound 189, {(S)-2-[3-(2-Difluoromethoxy-phenyl)-[1,2,4]oxadiazol-5-yl]-pyrrolidin-1-yl}-(5-methoxy-4-methyl-2-[1,2,3]triazol-2-yl-phenyl)-methanone], the IC50 came to 0.005 µM in test [1] (setting [3]) and 0.047 µM in test [2].

Consider `O=C(c1cccc(F)c1-c1ccn[nH]1)N1CCC[C@H]1c1nc(-c2ccccc2OC(F)F)no1` [compound 190, {(S)-2-[3-(2-Difluoromethoxy-phenyl)-[1,2,4]oxadiazol-5-yl]-pyrrolidin-1-yl}-[3-fluoro-2-(2H-pyrazol-3-yl)-phenyl]-methanone], for which the IC50 worked out at 0.014 µM in test [1] (setting [3]) and 0.053 µM in test [2].

For `Cc1ccc(-c2ccccn2)c(C(=O)N2CCC[C@H]2c2nc(-c3ccccc3OC(F)F)no2)c1` [compound 191, {(S)-2-[3-(2-Difluoromethoxy-phenyl)-[1,2,4]oxadiazol-5-yl]-pyrrolidin-1-yl}-(5-methyl-2-pyridin-2-yl-phenyl)-methanone], the IC50 stood at 0.027 µM in test [1] (setting [3]) and 0.119 µM in test [2].

In the case of `COc1c(F)cccc1-c1noc([C@@H]2CCCN2C(=O)c2cc(C)cc(C)c2-n2nccn2)n1` [compound 192, (3,5-Dimethyl-2-[1,2,3]triazol-2-yl-phenyl)-{(S)-2-[3-(3-fluoro-2-methoxy-phenyl)-[1,2,4]oxadiazol-5-yl]-pyrrolidin-1-yl}-methanone], the IC50 in test [1] (setting [3]) was 0.015 µM; in test [2], 0.135 µM.

`COc1c(F)cccc1-c1noc([C@@H]2CCCN2C(=O)c2ccccc2-n2nccn2)n1` [compound 193, {(S)-2-[3-(3-Fluoro-2-methoxy-phenyl)-[1,2,4]oxadiazol-5-yl]-pyrrolidin-1-yl}-(2-[1,2,3]triazol-2-yl-phenyl)-methanone]: the IC50 in test [1] (setting [3]) was 0.025 µM; in test [2], 0.263 µM.

On to `COc1c(F)cccc1-c1noc([C@@H]2CCCN2C(=O)c2ccc(C)cc2-n2nccn2)n1` [compound 195, {(S)-2-[3-(3-Fluoro-2-methoxy-phenyl)-[1,2,4]oxadiazol-5-yl]-pyrrolidin-1-yl}-(4-methyl-2-[1,2,3]triazol-2-yl-phenyl)-methanone], for which the 50% inhibitory concentration (IC50) in test [1] (setting [3]) amounted to 0.011 µM; in test [2] it was 0.071 µM.

Turning to `COc1c(F)cccc1-c1noc([C@@H]2CCCN2C(=O)c2cc(C)c(C)cc2-n2nccn2)n1` [compound 196, (4,5-Dimethyl-2-[1,2,3]triazol-2-yl-phenyl)-{(S)-2-[3-(3-fluoro-2-methoxy-phenyl)-[1,2,4]oxadiazol-5-yl]-pyrrolidin-1-yl}-methanone], the IC50 in test [1] (setting [3]) came out at 0.002 µM; in test [2], 0.01 µM.

For `COc1c(F)cccc1-c1noc([C@@H]2CCCN2C(=O)c2cccc(C)c2-n2nccn2)n1` [compound 197, {(S)-2-[3-(3-Fluoro-2-methoxy-phenyl)-[1,2,4]oxadiazol-5-yl]-pyrrolidin-1-yl}-(3-methyl-2-[1,2,3]triazol-2-yl-phenyl)-methanone], the IC50 in test [1] (setting [3]) was determined as 0.093 µM; in test [2], 0.354 µM.

`COc1ccc(-n2nccn2)c(C(=O)N2CCC[C@H]2c2nc(-c3cccc(F)c3OC)no2)c1` [compound 199, {(S)-2-[3-(3-Fluoro-2-methoxy-phenyl)-[1,2,4]oxadiazol-5-yl]-pyrrolidin-1-yl}-(5-methoxy-2-[1,2,3]triazol-2-yl-phenyl)-methanone]: the IC50 in test [1] (setting [3]) was 0.012 µM; in test [2], 0.083 µM.

In the case of `COc1c(F)cccc1-c1noc([C@@H]2CCCN2C(=O)c2cc(F)ccc2-n2nccn2)n1` [compound 200, {(S)-2-[3-(3-Fluoro-2-methoxy-phenyl)-[1,2,4]oxadiazol-5-yl]-pyrrolidin-1-yl}-(5-fluoro-2-[1,2,3]triazol-2-yl-phenyl)-methanone], the figures for the IC50 in test [1] (setting [3]) and in test [2] were 0.032 µM and 0.307 µM, respectively.

For `COc1cc(C(=O)N2CCC[C@H]2c2nc(-c3cccc(F)c3OC)no2)c(-n2nccn2)cc1C` [compound 201, {(S)-2-[3-(3-Fluoro-2-methoxy-phenyl)-[1,2,4]oxadiazol-5-yl]-pyrrolidin-1-yl}-(5-methoxy-4-methyl-2-[1,2,3]triazol-2-yl-phenyl)-methanone], the IC50 in test [1] (setting [3]) was found to be 0.002 µM; in test [2] it was 0.027 µM.

Consider `COc1c(F)cccc1-c1noc([C@@H]2CCCN2C(=O)c2cccc(F)c2-c2ccn[nH]2)n1` [compound 202, {(S)-2-[3-(3-Fluoro-2-methoxy-phenyl)-[1,2,4]oxadiazol-5-yl]-pyrrolidin-1-yl}-[3-fluoro-2-(2H-pyrazol-3-yl)-phenyl]-methanone], for which the values for the IC50 in test [1] (setting [3]) and in test [2] were 0.01 µM and 0.053 µM, respectively.

Consider `COc1c(F)cccc1-c1noc([C@@H]2CCCN2C(=O)c2cc(C)ccc2-c2ccccn2)n1` [compound 203, {(S)-2-[3-(3-Fluoro-2-methoxy-phenyl)-[1,2,4]oxadiazol-5-yl]-pyrrolidin-1-yl}-(5-methyl-2-pyridin-2-yl-phenyl)-methanone], for which the IC50 was 0.016 µM in test [1] (setting [3]) and 0.056 µM in test [2].

As to `COc1c(F)cccc1-c1noc([C@@H]2CCCN2C(=O)c2ccc(Cl)cc2-n2nccn2)n1` [compound 204], the IC50 was 0.01 µM in test [1] and 0.065 µM in test [2].

On to `COc1c(F)cccc1-c1noc([C@@H]2CCCN2C(=O)c2ccc(C(F)(F)F)cc2-n2nccn2)n1` [compound 205, {(S)-2-[3-(3-Fluoro-2-methoxy-phenyl)-[1,2,4]oxadiazol-5-yl]-pyrrolidin-1-yl}-(2-[1,2,3]triazol-2-yl-4-trifluoromethyl-phenyl)-methanone], for which the IC50 was determined as 0.043 µM in test [1] (setting [3]) and 0.34 µM in test [2].

`COc1cc(C(=O)N2CCC[C@H]2c2nc(-c3cccc(F)c3OC)no2)c(-n2nccn2)cc1F` [compound 206, {(S)-2-[3-(3-Fluoro-2-methoxy-phenyl)-[1,2,4]oxadiazol-5-yl]-pyrrolidin-1-yl}-(4-fluoro-5-methoxy-2-[1,2,3]triazol-2-yl-phenyl)-methanone]: the IC50 in test [1] (setting [3]) is 0.01 µM; in test [2], 0.409 µM.

Take `COc1c(F)cccc1-c1noc([C@@H]2CCCN2C(=O)c2cc(F)cc(C)c2-n2nccn2)n1` [compound 207, {(S)-2-[3-(3-Fluoro-2-methoxy-phenyl)-[1,2,4]oxadiazol-5-yl]-pyrrolidin-1-yl}-(5-fluoro-3-methyl-2-[1,2,3]triazol-2-yl-phenyl)-methanone]: the figures for the IC50 in test [1] (setting [3]) and in test [2] were 0.565 µM and 1.81 µM, respectively.

In the case of `COc1cc(C(=O)N2CCC[C@H]2c2nc(-c3cccc(F)c3OC)no2)c(-n2nccn2)cc1OC` [compound 208, (4,5-Dimethoxy-2-[1,2,3]triazol-2-yl-phenyl)-{(S)-2-[3-(3-fluoro-2-methoxy-phenyl)-[1,2,4]oxadiazol-5-yl]-pyrrolidin-1-yl}-methanone], the IC50 came to 0.02 µM in test [1] (setting [3]) and 0.225 µM in test [2].

As for `CCOc1ncccc1-c1noc([C@@H]2CCCN2C(=O)c2cc(C)cc(C)c2-n2nccn2)n1` [compound 209, (3,5-Dimethyl-2-[1,2,3]triazol-2-yl-phenyl)-{(S)-2-[3-(2-ethoxy-pyridin-3-yl)-[1,2,4]oxadiazol-5-yl]-pyrrolidin-1-yl}-methanone], the IC50 in test [1] (setting [3]) came out at 0.021 µM; in test [2] it was 0.056 µM.
